What was measured:
[1] = molecular target: human alpha1 nicotinic acetylcholine (nACh) receptor (Homo sapiens, UniProt P02708); experiment: Nicotinic acetylcholine receptor antagonism assay, IONFlux automated patch clamp (Example 203); type: cell-based; conditions: for IC50: antagonism of ACh-stimulated human alpha1 nAChR current, patch clamp; for Emax at 100 µM: maximum percentage antagonism at maximum concentration tested 100 μM; for Emax at 10 µM: maximum percentage antagonism at maximum concentration tested 10 μM
Method in brief: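 Cells expressing human α1 nAChR were incubated with a compound dose response (top 10 μM or 100 μM), then stimulated with ACh (10 mM), and peak current was read by automated patch clamp. % inhibition was taken against ACh-alone control, corrected for vehicle and run-down, and fit non-linearly for IC50; runs were averaged.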

[2] = test system: CCR2 expressing cells (CD11b+Ly6c+Hi) in peripheral blood; experiment: In vivo depletion assay, flow cytometry of peripheral blood (Example 201); design: species or system human CCR2 knock-in mice (C57 background); conditions: hCCR2 knock-in mice, IV 0.1 mpk compound + 10 mpk anti-cotinine antibody (SEQ ID NO: 13/14), peripheral blood at 48 hr
Method in brief: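 Mice dosed with compound formulated in saline/DMSO/PBS, with anti-cotinine antibody (rabbit variable region, mouse IgG2a Fc) where required, pre-incubated 30 min at room temperature. Terminal peripheral blood RBC-lysed, Fc-blocked, stained for CD45, CD3, CD11b, Ly6C, human CCR2 and 7AAD; percent depletion of CD11b+Ly6c+Hi cells determined by flow cytometry.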

[3] = molecular target: anti-cotinine antibody (SEQ ID NO: 11/12, rabbit variable region with human IgG1 Fc DE mutation); experiment: SPR binding of anti-cotinine antibody to ARM compounds, Biacore T200, 37° C. (Example 202); conditions: SPR Biacore T200, 37° C., pH 7.4, antibody SEQ ID NO: 11/12 captured on protein A; Kd in molar
Method in brief: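 Antibody captured on a protein A chip; ARM compounds injected at 100 μL/min (200 s association, 2000 s dissociation), 3-fold 5-point series from 200 nM, at 37 °C in HEPES pH 7.4 buffer with 0.005% P20 and 1% DMSO. Double-referenced sensorgrams fit 1:1 for kon, koff, Kd (koff/kon), residence time (1/koff); pKd averaged across runs.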

Chain of human alpha1 nicotinic acetylcholine (nACh) receptor (P02708 21-457): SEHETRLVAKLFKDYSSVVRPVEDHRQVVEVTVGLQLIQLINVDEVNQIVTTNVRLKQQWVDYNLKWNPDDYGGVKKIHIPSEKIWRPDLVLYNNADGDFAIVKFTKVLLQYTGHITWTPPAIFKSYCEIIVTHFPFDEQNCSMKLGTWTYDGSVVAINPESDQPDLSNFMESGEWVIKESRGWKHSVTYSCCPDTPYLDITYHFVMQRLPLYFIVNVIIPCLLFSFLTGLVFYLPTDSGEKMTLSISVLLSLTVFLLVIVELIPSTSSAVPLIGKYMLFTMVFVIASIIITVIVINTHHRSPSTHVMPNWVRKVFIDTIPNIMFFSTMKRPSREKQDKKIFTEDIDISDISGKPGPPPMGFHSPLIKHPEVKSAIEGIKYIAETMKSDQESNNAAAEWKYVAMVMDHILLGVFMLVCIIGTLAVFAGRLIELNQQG
Chain of human alpha1 nicotinic acetylcholine (nACh) receptor (P11230 24-501 partner): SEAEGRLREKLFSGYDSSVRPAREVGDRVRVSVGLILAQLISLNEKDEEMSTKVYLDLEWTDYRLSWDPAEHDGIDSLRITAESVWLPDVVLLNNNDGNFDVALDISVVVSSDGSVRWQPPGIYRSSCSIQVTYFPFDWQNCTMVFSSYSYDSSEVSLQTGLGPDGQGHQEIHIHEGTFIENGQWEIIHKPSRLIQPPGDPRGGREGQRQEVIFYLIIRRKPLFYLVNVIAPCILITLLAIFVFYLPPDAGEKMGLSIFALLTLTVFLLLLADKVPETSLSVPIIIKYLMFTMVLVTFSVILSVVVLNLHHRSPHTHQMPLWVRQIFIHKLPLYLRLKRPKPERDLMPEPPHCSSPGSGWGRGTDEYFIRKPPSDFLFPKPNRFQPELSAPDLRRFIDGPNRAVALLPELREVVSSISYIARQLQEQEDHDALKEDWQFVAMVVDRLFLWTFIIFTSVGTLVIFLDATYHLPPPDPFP
Chain of human alpha1 nicotinic acetylcholine (nACh) receptor (Q07001 22-517 partner): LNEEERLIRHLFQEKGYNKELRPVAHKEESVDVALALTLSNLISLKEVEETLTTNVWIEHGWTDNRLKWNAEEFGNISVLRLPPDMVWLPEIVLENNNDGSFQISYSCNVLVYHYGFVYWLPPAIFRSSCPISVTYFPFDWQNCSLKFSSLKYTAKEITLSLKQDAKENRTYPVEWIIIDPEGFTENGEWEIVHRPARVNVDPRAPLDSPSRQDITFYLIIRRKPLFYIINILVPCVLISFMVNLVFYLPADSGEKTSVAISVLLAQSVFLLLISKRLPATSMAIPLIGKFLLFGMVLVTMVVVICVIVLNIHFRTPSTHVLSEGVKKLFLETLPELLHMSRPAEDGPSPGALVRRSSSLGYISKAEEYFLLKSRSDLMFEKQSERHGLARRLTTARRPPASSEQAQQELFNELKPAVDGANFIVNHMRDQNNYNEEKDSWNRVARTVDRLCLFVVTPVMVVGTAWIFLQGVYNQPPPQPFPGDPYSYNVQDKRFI

Row | Structure (SMILES) | IC50 [1] [µM] | Emax at 100 µM ([1]; read-out: Maximum Response) [%] | % Depletion of CCR2 expressing cells [2] [%] | pKd of Antibody for ARM Compound of Formula (I) [3] | Emax at 10 µM ([1]; read-out: Maximum Response) [%] | Emax at 33.33 µM ([1]; maximum percentage antagonism at maximum concentration tested 33.33 μM, read-out: Maximum Response) [%] | Emax at 11.11 µM ([1]; maximum percentage antagonism at maximum concentration tested 11.11 μM, read-out: Maximum Response) [%]
1 | CC(C)N(C)[C@@H]1CC[C@H](N2CC[C@H](Nc3ncnc4ccc(C(F)(F)F)cc34)C2=O)[C@H](NC(=O)[C@H]2C[C@@H](NC(=O)CCOCCOCCOCCNC(=O)[C@H]3CC(=O)N(C)[C@@H]3c3cccnc3)C2)C1 [Example 24, (2S,3S)-N-(2-(2-(2-(3-(((1S,3s)-3-(((1R,2S,5R)-5-(Isopropyl(methyl)amino)-2-((S)-2-oxo-3-((6-(trifluoromethyl)quinazolin-4-yl)amino)pyrrolidin-1-yl)cyclohexyl)carbamoyl)cyclobutyl)amino)-3-oxopropoxy)ethoxy)ethoxy)ethyl)-1-methyl-5-oxo-2-(pyridin-3-yl)pyrrolidine-3-carboxamide] | 85.3 | 59.5 | 89.47 | 9.4425 | – | – | –
2 | CC(C)N(C)[C@@H]1CC[C@H](N2CC[C@H](Nc3ncnc4ccc(C(F)(F)F)cc34)C2=O)[C@H](NC(=O)[C@H]2CC[C@@H](NC(=O)CCOCCOCCOCCNC(=O)[C@H]3CC(=O)N(C)[C@@H]3c3cccnc3)CC2)C1 [Example 28, (2S,3S)-N-(2-(2-(2-(3-(((1S,4s)-4-(((1R,2S,5R)-5-(Isopropyl(methyl)amino)-2-((S)-2-oxo-3-((6-(trifluoromethyl)quinazolin-4-yl)amino)pyrrolidin-1-yl)cyclohexyl)carbamoyl)cyclohexyl)amino)-3-oxopropoxy)ethoxy)ethoxy)ethyl)-1-methyl-5-oxo-2-(pyridin-3-yl)pyrrolidine-3-carboxamide] | 40.9 | 69.9 | 87.1 | 9.273 | – | – | –
3 | CC(C)N(C)[C@@H]1CC[C@H](N2CC[C@H](Nc3ncnc4ccc(C(F)(F)F)cc34)C2=O)[C@H](NC(=O)[C@H]2CC[C@H](NC(=O)CCOCCOCCOCCNC(=O)[C@H]3CC(=O)N(C)[C@@H]3c3cccnc3)CC2)C1 [Example 30, (2S,3S)-N-(2-(2-(2-(3-(((1R,4r)-4-(((1R,2S,5R)-5-(Isopropyl(methyl)amino)-2-((S)-2-oxo-3-((6-(trifluoromethyl)quinazolin-4-yl)amino)pyrrolidin-1-yl)cyclohexyl)carbamoyl)cyclohexyl)amino)-3-oxopropoxy)ethoxy)ethoxy)ethyl)-1-methyl-5-oxo-2-(pyridin-3-yl)pyrrolidine-3-carboxamide] | ≥ 10 | – | 34.88 | 9.3155 | 5.4 | – | –
4 | CCN1C(=O)C[C@H](C(=O)NCCOCCOCCOCCC(=O)N[C@H]2CC[C@@H](C(=O)N[C@@H]3C[C@H](N(C)C(C)C)CC[C@@H]3N3CC[C@H](Nc4ncnc5ccc(C(F)(F)F)cc45)C3=O)CC2)[C@H]1c1cccnc1 [Example 34, (2S,3S)-1-ethyl-N-(2-(2-(2-(3-((cis-4-(((1R,2S,5R)-5-(isopropyl(methyl)amino)-2-((S)-2-oxo-3-((6-(trifluoromethyl)quinazolin-4-yl)amino)pyrrolidin-1-yl)cyclohexyl)carbamoyl)cyclohexyl)amino)-3-oxopropoxy)ethoxy)ethoxy)ethyl)-5-oxo-2-(pyridin-3-yl)pyrrolidine-3-carboxamide] | 28.5 | 79.2 | 95 | 9.933 | – | – | –
5 | CCN1C(=O)C[C@H](C(=O)NCCOCCOCCOCCC(=O)N[C@H]2CC[C@@H](C(=O)N[C@@H]3C[C@H](NC(C)(C)C)CC[C@@H]3N3CC[C@H](Nc4ncnc5ccc(C(F)(F)F)cc45)C3=O)CC2)[C@H]1c1cccnc1 [Example 35, (2S,3S)-N-(2-(2-(2-(3-(((1S,4s)-4-(((1R,2S,5R)-5-(tert-butylamino)-2-((S)-2-oxo-3-((6-(trifluoromethyl)quinazolin-4-yl)amino)pyrrolidin-1-yl)cyclohexyl)carbamoyl)cyclohexyl)amino)-3-oxopropoxy)ethoxy)ethoxy)ethyl)-1-ethyl-5-oxo-2-(pyridin-3-yl)pyrrolidine-3-carboxamide] | 89.2 | 52.3 | 88.81 | 9.785 | – | – | –
6 | CN1C(=O)C[C@H](C(=O)NCCOCCOCCOCCOCCOCCC(=O)N[C@@H]2C[C@H](NC(C)(C)C)CC[C@@H]2N2CC[C@H](Nc3ncnc4ccc(C(F)(F)F)cc34)C2=O)[C@H]1c1cccnc1 [Example 37, (2S,3S)-N-(18-(((1R,2S,5R)-5-(tert-Butylamino)-2-((S)-2-oxo-3-((6-(trifluoromethyl)quinazolin-4-yl)amino)pyrrolidin-1-yl)cyclohexyl)amino)-18-oxo-3,6,9,12,15-pentaoxaoctadecyl)-1-methyl-5-oxo-2-(pyridin-3-yl)pyrrolidine-3-carboxamide] | ≥ 10 | – | 75 | 9.7475 | 7.3 | – | –
7 | CN1C(=O)C[C@H](C(=O)NCCOCCOCCOCCOCCOCCOCCC(=O)N[C@@H]2C[C@H](NC(C)(C)C)CC[C@@H]2N2CC[C@H](Nc3ncnc4ccc(C(F)(F)F)cc34)C2=O)[C@H]1c1cccnc1 [Example 38, (2S,3S)-N-(21-(((1R,2S,5R)-5-(tert-Butylamino)-2-((S)-2-oxo-3-((6-(trifluoromethyl)quinazolin-4-yl)amino)pyrrolidin-1-yl)cyclohexyl)amino)-21-oxo-3,6,9,12,15,18-hexaoxahenicosyl)-1-methyl-5-oxo-2-(pyridin-3-yl)pyrrolidine-3-carboxamide] | ≥ 10 | – | 84.55 | 9.611 | -2.2 | – | –
8 | CC(C)N(C)[C@@H]1CC[C@H](N2CC[C@H](Nc3ncnc4ccc(C(F)(F)F)cc34)C2=O)[C@H](NC(=O)C2CCC(NC(=O)CCOCCNC(=O)CCOCCNC(=O)[C@H]3CC(=O)N(C)[C@@H]3c3cccnc3)CC2)C1 (stereo partly drawn) [Example 48, (2S,3S)-N-(2-(3-((2-(3-(((1R,4r)-4-(((1R,2S,5R)-5-(Isopropyl(methyl)amino)-2-((S)-2-oxo-3-((6-(trifluoromethyl)quinazolin-4-yl)amino)pyrrolidin-1-yl)cyclohexyl)carbamoyl)cyclohexyl)amino)-3-oxopropoxy)ethyl)amino)-3-oxopropoxy)ethyl)-1-methyl-5-oxo-2-(pyridin-3-yl)pyrrolidine-3-carboxamide] | 31.8 | 77 | 89 | 8.975 | – | – | –
9 | CC(C)N(C)[C@@H]1CC[C@H](N2CC[C@H](Nc3ncnc4ccc(C(F)(F)F)cc34)C2=O)[C@H](NC(=O)[C@H]2C[C@@H](NC(=O)CCOCCOCCNC(=O)CCNC(=O)[C@H]3CC(=O)N(C)[C@@H]3c3cccnc3)C2)C1 [Example 49, (2S,3S)-N-(3-((2-(2-(3-(((1S,3s)-3-(((1R,2S,5R)-5-(Isopropyl(methyl)amino)-2-((S)-2-oxo-3-((6-(trifluoromethyl)quinazolin-4-yl)amino)pyrrolidin-1-yl)cyclohexyl)carbamoyl)cyclobutyl)amino)-3-oxopropoxy)ethoxy)ethyl)amino)-3-oxopropyl)-1-methyl-5-oxo-2-(pyridin-3-yl)pyrrolidine-3-carboxamide] | 80.3 | 56.7 | 85.84 | 9.191 | – | – | –
10 | CC(C)N(C)[C@@H]1CC[C@H](N2CC[C@H](Nc3ncnc4ccc(C(F)(F)F)cc34)C2=O)[C@H](NC(=O)[C@H]2CC[C@@H](NC(=O)CCCO[C@H]3CC[C@H](NC(=O)CCNC(=O)[C@@H]4CC(=O)N(C)[C@H]4c4cccnc4)CC3)CC2)C1 [Example 52, (2S,3S)-N-(3-(((1R,4S)-4-(4-(((1S,4S)-4-(((1R,2S,5R)-5-(Isopropyl(methyl)amino)-2-((S)-2-oxo-3-((6-(trifluoromethyl)quinazolin-4-yl)amino)pyrrolidin-1-yl)cyclohexyl)carbamoyl)cyclohexyl)amino)-4-oxobutoxy)cyclohexyl)amino)-3-oxopropyl)-1-methyl-5-oxo-2-(pyridin-3-yl)pyrrolidine-3-carboxamide] | 33.3 | – | 79.18 | 9.2545 | – | 8.3 | –
11 | CC(C)N(C)[C@@H]1CC[C@H](N2CC[C@H](Nc3ncnc4ccc(C(F)(F)F)cc34)C2=O)[C@H](NC(=O)[C@H]2CC[C@H](NC(=O)CCOC[C@H]3CC[C@H](COCCNC(=O)[C@H]4CC(=O)N(C)[C@@H]4c4cccnc4)CC3)CC2)C1 [Example 53, (2S,3S)-N-(2-(((1R,4S)-4-((3-(((1R,4R)-4-(((1R,2S,5R)-5-(Isopropyl(methyl)amino)-2-((S)-2-oxo-3-((6-(trifluoromethyl)quinazolin-4-yl)amino)pyrrolidin-1-yl)cyclohexyl)carbamoyl)cyclohexyl)amino)-3-oxopropoxy)methyl)cyclohexyl)methoxy)ethyl)-1-methyl-5-oxo-2-(pyridin-3-yl)pyrrolidine-3-carboxamide] | ≥ 11.1 | – | 68.42 | 9.531 | – | – | 10
